Patent publication US20160311795A1, “PYRIMIDINE DIAMINE DERIVATIVES AS INHIBITORS OF CYTOSOLIC HSP90” (CALASIA PHARMACEUTICALS, INC., priority 2012, published 2016)
Where two headings read alike, the source gives them in different places.

Tests used:
[1] = target: T1, human full length Hsp90 (Homo sapiens, UniProt P07900); experiment: Determination of the Kd value of FITC-labeled geldanamycin for Hsp90 (fluorescence polarization); assay type: binding; details: with or without 50 nM Hsp90
T1 construct: amino acid residues 1 to 732 of human Hsp90 (GenBank: BC121062.2); made in house; host or cells: E. coli BL21DE3 (pET15b)
Procedure: Eighty five micro liters (μl) of a binding assay buffer (20 mM HEPES, pH 7.5, 50 mM KCl, 5 mM MgCl2, 20 mM sodium molybdate, 0.01% NP-40, 2 mM DTT, and 0.1 mg/mL BSA) were added to a 96 well black plate placed on ice. DMSO (3 μl) was added to the wells, followed by the addition of either 10 μl human full length HSP90 (50 nM final concentration) diluted in the binding assay buffer or 10 μl of the buffer alone. The plates were incubated at 4° C. on a plate shaker for 24 hours. Two μl of 50× GA-FITC titrate within a final range of 160 nM to 0.3125 nM in DMSO were added to all wells, followed by incubation at ambient temperature for 1 h with agitation. Fluorescence polarization readings were taken at excitation and emission wavelengths of 480 and 500 nm respectively. Measurements were performed in duplicate. Specific binding was calculated by subtracting polarization values in the presence of
Hsp90 from those in the absence of Hsp90. GA-FITC Kd values were calculated using Prism software (GraphPad Software, Inc., San Diego, Calif.).
A 10 point concentration response curve for binding of GM-FITC to Hsp90 was obtained. The concentration of GM-FITC used ranged from 160 nM to 0.3125 nM, which produced a saturable concentration response curve. […] The value of binding maximum (Bmax) was determined to be 188 nM.

[2] = target: T1, human full length Hsp90; experiment: Fluorescence polarization Hsp90 competitive binding assay (GM-FITC displacement)
Procedure: Hsp90 binding assays was performed generally according to the procedure described in J. Biomol. […] Hsp90 inhibitors were solubilized in DMSO at a stock concentration of 50 mM. […] Eighty five μl of binding assay buffer (20 mM HEPES, pH-7.5, 50 mM KCl, 5 mM MgCl2, 20 mM sodium molybdate, 0.01% NP-40, 2 mM DTT, and 0.1 mg/ml BSA) was added to the wells of a 96 well black plate placed on ice. […] Next, 10 μl either binding assay buffer alone (control) or human full length Hsp90 protein diluted in the binding assay buffer was added to achieve a final concentration of 50 nM. The plates were incubated at 4° C. on a plate shaker for 24 h. Two μl of 50× GM-FITC (9 nM final) in DMSO was added to all wells and the plate was incubated at ambient temperature for 1 h with shaking. Fluorescence polarization readings were taken in duplicate at excitation and emission wavelengths of 480 nm and 500 nm respectively. Specific binding was calculated by subtracting polarization values in the presence of Hsp90 from those in the absence of Hsp90. To calculate percent inhibition the specific binding values obtained for GA-FITC in the presence of compound were compared to values for GA-FITC in the absence of compound (DMSO only).

[3] = Rat CNS exposure (plasma and CNS tissue concentration, LC-MS/MS); assay type: in vivo; details: 10 mg/kg
Procedure: Test subjects (Sprague-Dawley rats) were housed in sterile vivarium with controlled temperature, humidity and 12-hour light-dark cycle (7:00 lights-on and 19:00 lights-off). Following procurement, rats were acclimated to the vivarium facility for 7 days prior to study day-1 with ad libitum access to both diet and water. Bedding was changed twice weekly. […] On study day-1 rats were administered vehicle or Hsp90 inhibitor formulation. Following administrations of test article formulation, blood and CNS tissue was collected at 6.5 h post-dosed by a necropsy procedure. In detail, CNS tissue was isolated from the Vehicle and dose groups, divided into 2 mid-sagittal sections, placed in tarred 1 mL micro-centrifuge tubes, weighed and immediately frozen on dry ice. Blood was isolated by a cardiac puncture procedure from the Vehicle and Hsp90 inhibitor dose groups. From these samples, plasma was isolated in plasma separator tubes containing ethylenediaminetetraacetic acid as the anticoagulant. HSP90 inhibitor concentrations in plasma and CNS tissue were determined using LC-MS/MS based methods following a 60% acetonitrile extraction.

[4] = Table 1, 50 nM Hsp90, 9 nM GM-FITC, read-out: Biochemical Potency IC50
[5] = Table II, binding affinities ranked by potency
[6] = Table II, binding affinities ranked by potency, read-out: IC50

Compound | binding maximum (Bmax) [1] [nM] | Kd ([1]; 160 nM to 0.3125 nM probe) [nM] | IC50 [2, 4] [nM] | Ki [2, 5] [nM] | IC50 [2, 6] [nM] | partitioning CNS versus plasma [3]
CO[C@H]1/C=C\C=C(/C)C(=O)NC2=CC(=O)C(NCCCCCCNC(=S)Nc3ccc(-c4c5ccc(=O)cc-5oc5cc(O)ccc45)c(C(=O)O)c3)=C(C[C@@H](C)C[C@H](OC)[C@H](O)[C@@H](C)/C=C(\C)[C@@H]1OC(N)=O)C2=O [GA-FITC] | 188 | 3.1 | – | – | – | –
CCN(Cc1ncc(C)c(OC)c1C)c1cc(Cl)nc(N)n1 [SBI-0640612, 6-Chloro-N4-ethyl-N4-((4-methoxy-3,5-dimethylpyridin-2-yl)methyl)pyrimidine-2,4-diamine] | – | – | 1140 | 285 | 1140 | –
COc1c(C)cnc(CN(CCc2cccc(Br)c2)c2cc(Cl)nc(N)n2)c1C [SBI-0640613, N4-(3-Bromophenethyl)-6-chloro-N4-((4-methoxy-3,5-dimethylpyridin-2-yl)methyl)pyrimidine-2,4-diamine] | – | – | 97 | 24 | 97 | –
COc1c(C)cnc(CN(C(=O)C(C)C)c2cc(Cl)nc(N)n2)c1C [SBI-0640644] | – | – | 13900 | 3480 | 13900 | –
CCCC(=O)N(Cc1ncc(C)c(OC)c1C)c1cc(Cl)nc(N)n1 [SBI-0640645] | – | – | 30000 | 7500 | 30000 | –
Cc1cn(-c2cc(F)c(C(N)=O)c(N[C@H]3CCOC3)c2)c2c1C(=O)CC(C)(C)C2 [SNX-0723, reference compound] | – | – | – | – | – | selectively partitions into the CNS compartment compared to plasma
